Experimental data: paper PMC8070018, “Human Lanosterol 14-Alpha Demethylase (CYP51A1) Is a Putative Target for Natural Flavonoid Luteolin 7,3′-Disulfate” (Molecules, 2021)
Read-outs that look alike come from different tables or passages of the source. Blank lines part the entries; values can stand above or below the molecule they belong to.

Legend:
human CYP51A1 [1] = molecular target: T1, human CYP51A1 (Homo sapiens, UniProt Q16850); conditions: cited from earlier work; for affinity: direct coordination with heme iron; for Kd: read-out: Kdapp
T1 construct: made in house
T1 sequence (Q16850 1-509): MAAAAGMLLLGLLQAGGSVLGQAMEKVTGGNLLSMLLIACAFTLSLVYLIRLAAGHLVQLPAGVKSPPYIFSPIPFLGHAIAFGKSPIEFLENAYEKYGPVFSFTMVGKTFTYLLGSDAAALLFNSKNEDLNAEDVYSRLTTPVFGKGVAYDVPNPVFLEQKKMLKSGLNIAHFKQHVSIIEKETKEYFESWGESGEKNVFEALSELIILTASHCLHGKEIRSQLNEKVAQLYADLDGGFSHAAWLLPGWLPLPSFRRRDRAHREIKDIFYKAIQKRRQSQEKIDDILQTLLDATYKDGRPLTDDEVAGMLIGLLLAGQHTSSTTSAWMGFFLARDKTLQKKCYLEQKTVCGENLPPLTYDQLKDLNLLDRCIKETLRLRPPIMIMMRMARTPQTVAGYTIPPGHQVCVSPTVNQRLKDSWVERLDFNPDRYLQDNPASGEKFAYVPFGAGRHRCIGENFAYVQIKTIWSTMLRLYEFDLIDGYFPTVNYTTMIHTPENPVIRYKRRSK

CYP2C19 = conditions: cited from earlier work
CYP2C9 = system: CYP2C9; design: method as in PMID 32661014; conditions: comparable to positive control sulfaphenazole; cited from earlier work
CYP3A4 = conditions: cited from earlier work
human CYP51A1 [2] = molecular target: T1, human CYP51A1; assay: Spectrophotometric titration (difference spectra) of CYP51A1 in the presence of lanosterol; format: binding; conditions: for spectral response in the difference spectrum of CYP51A1: titration in the presence of lanosterol, baicalein and luteolin 7,3′-disulfate up to 30 μM, luteolin up to 15 μM; for Kd: spectral titration, CYP51A1 4 μM, lanosterol 5 μM, pH 7.4, room temperature, read-out: apparent dissociation constant (Kdapp)
Procedure: Spectrophotometric titration was used to determine the apparent dissociation constants (Kdapp) for the enzyme–ligand complexes. The spectral measurements were performed on Cary Series UV-Vis-NIR (Agilent Technologies, Santa Clara, CA, USA) spectrophotometer using tandem quartz cuvettes (1 cm optical path) to exclude the absorption of ligands. Natural substrate, lanosterol, at final concentration 5 μM was added before the titration to the CYP51A1 (final concentration 4 μM) in 50 mM potassium phosphate buffer, pH 7.4. […] The difference spectra were recorded after each addition of ligand at room temperature in the range of 350–500 nm. The apparent dissociation constants were determined by plotting the absorbance changes in the difference spectra versus the concentration of free ligand and evaluated by using the Hill equation (OriginPro 8.1 statistical data analysis package): Aobs=Amax×(S×n/Kdapp×n+S×n), where Aobs—the observed change in the absorption, Amax—the absorbance change at ligand saturation, Kdapp—the apparent dissociation constant for the ligand–enzyme complex, S—the ligand concentration, n—a Hill coefficient.

human CYP51A1 [3] = molecular target: T1, human CYP51A1; assay: Surface plasmon resonance binding to immobilized CYP51A1; conditions: SPR; for Kd: immobilized CYP51A1, read-out: Kd (equilibrium dissociation constant)
[4] = molecular target: T2, human CYP51A1 (lanosterol 14α-demethylase) (Homo sapiens, UniProt Q16850); assay: Lanosterol 14α-demethylase activity of CYP51A1 in the reconstituted system; format: biochemical; conditions: for Relative Activity: CYP51A1 0.5 μM, CPR 2.0 μM, lanosterol 50 μM
T2 construct: made in house
T2 sequence (Q16850 1-509): T1 sequence (Q16850 1-509)

CYP1A, CYP2B and CYP3A4 = conditions: range over CYP1A; cited from earlier work
[5] = system: CYP1A2, CYP3A, CYP2B6, CYP2E1 and CYP2D6; design: method as in PMID 28872689, PMID 18191104; conditions: range over CYP1A2, CYP3A; cited from earlier work
CYP2D6 = system: CYP2D6; design: method as in PMID 32942157; conditions: 20 μM luteolin; cited from earlier work
[6] = 25 °C, Langmuir 1:1 model, n = 3, read-out: koff (dissociation rate constant)
[7] = 25 °C, Langmuir 1:1 model, n = 3, read-out: kon (association rate constant)
[8] = concentration-dependent, up to 30 μM
[9] = 25 °C, Two state reaction model, n = 3

Compound: Clc1ccc(COC(Cn2ccnc2)c2ccc(Cl)cc2Cl)cc1 (stereo not drawn) [econazole]
affinity (human CYP51A1 [1]): submicromolar range

Compound: O=c1cc(-c2ccccc2)oc2cc(OS(=O)(=O)O)cc(O)c12 [chrysin 7-sulfate]
inhibition effect (CYP2C19): slight inhibition effect
IC50 (CYP2C9): 2.7 µM
inhibition effect (CYP3A4): slight inhibition effect

koff (human CYP51A1 [3]; [6]): 0.00084 s⁻¹
kon (human CYP51A1 [3]; [7]): 294 M⁻¹ s⁻¹
Kd (human CYP51A1 [3]; 25 °C): 2.9 µM
association rate of the CYP51A1 complex compared to lanosterol (human CYP51A1 [3]; relative to complex formation with lanosterol): seven times faster
dissociation rate of the CYP51A1 complex compared to lanosterol (human CYP51A1 [3]; relative to complex with lanosterol): about eight times higher
Relative Activity ([4]; compound 25 μM): 49.9%
inhibition at 25 µM ([4]; compound 25 μM, read-out: level of inhibition): 50.1%
IC50 ([4]; reconstituted system, 5, 10, 25, 50 and 100 μM tested, read-out: apparent IC50): > 25 µM
Compound: O=c1cc(-c2ccc(O)c(OS(=O)(=O)O)c2)oc2cc(OS(=O)(=O)O)cc(O)c12 [luteolin 7,3′-disulfate]
spectral response in the difference spectrum of CYP51A1 (human CYP51A1 [2]): does not cause changes in the difference spectrum

Compound: O=c1c(O)c(-c2ccc(O)c(OS(=O)(=O)O)c2)oc2cc(O)cc(O)c12 [quercetin 3′-sulfate]
inhibition effect (CYP2C19; [8]): ≤ 50%
inhibition effect (CYP3A4; [8]): ≤ 50%

Compound: O=c1cc(-c2ccccc2)oc2cc(O)c(O)c(O)c12 [baicalein]
IC50 (CYP1A, CYP2B and CYP3A4): 0.5 to 36 µM
Kd (human CYP51A1 [2]): 8.2 ± 0.4 µM
spectral response in the difference spectrum of CYP51A1 (human CYP51A1 [2]): reverse type I spectral response
Kd (human CYP51A1 [3]; 25 °C): 12.5 µM

Compound: CCCN(CCc1ccc(Cl)c(Cl)c1)CC(O)c1cccnc1 (stereo not drawn) [LK-935, 2-((3,4-Dichlorophenethyl)(Propyl)Amino)-1-(Pyridin-3-Yl)Ethanol]
affinity (human CYP51A1 [1]): submicromolar range

Kd (human CYP51A1 [2]): 5.1 ± 0.5 µM
spectral response in the difference spectrum of CYP51A1 (human CYP51A1 [2]): reverse type I spectral response
koff2 (backward rate constant for CP ↔ CP* transition) (human CYP51A1 [3]; [9]): koff2 (1/s × 10^−4) = 14 ± 2
kon2 (forward rate constant for CP ↔ CP* transition) (human CYP51A1 [3]; [9]): kon2 (1/s × 10^−4) = 33 ± 4
koff (human CYP51A1 [3]; 25 °C, Two state reaction model, n = 3, read-out: koff1 (dissociation rate constant)): 0.019 s⁻¹
kon (human CYP51A1 [3]; 25 °C, Two state reaction model, n = 3, read-out: kon1 (association rate constant)): 282 M⁻¹ s⁻¹
Kd (human CYP51A1 [3]; 25 °C): 20 µM
Relative Activity ([4]; compound 25 μM): 92.6%
Compound: O=c1cc(-c2ccc(O)c(O)c2)oc2cc(O)cc(O)c12 [luteolin]
IC50 [5]: 1.6 to 133 µM
O-demethylation of 3-[2-(N,N-diethyl-N-methyl-ammonium)ethyl]-7-methoxy-4-methylcoumarin inhibited to (CYP2D6): 40%
inhibition in reaction with dextromethorphan (CYP2D6): < 5%

Compound: C[C@]12CC[C@H](O)CC1=CC[C@@H]1[C@@H]2CC[C@]2(C)C(c3cccnc3)=CC[C@@H]12 [abiraterone]
Kd (human CYP51A1 [1]): 22 µM

Compound: CC(C)=CCC[C@@H](C)[C@H]1CC[C@@]2(C)C3=C(CC[C@]12C)[C@@]1(C)CC[C@H](O)C(C)(C)[C@@H]1CC3 [lanosterol]
koff (human CYP51A1 [3]; [6]): 0.0001 s⁻¹
kon (human CYP51A1 [3]; [7]): 41.4 M⁻¹ s⁻¹
Kd (human CYP51A1 [3]; 25 °C): 2.4 µM

Compound: C[C@]12CC[C@H](O)CC1=CC[C@@H]1[C@@H]2CC[C@]2(C)C(n3cnc4ccccc43)=CC[C@@H]12 [galeterone]
Kd (human CYP51A1 [1]): 16 µM
